This is an account of results in US10667517B2, “2-(Het)aryl-substituted fused heterocycle derivatives as pesticides” (BAYER CROPSCIENCE AKTIENGESELLSCHSAFT, priority 2015, dated 2020).

Data set [1] is described as follows: log P (neutral), HPLC on reversed-phase column (C 18), LC-MS neutral range. The class given is physicochemical. Conditions: pH 7.8, ammonium hydrogencarbonate/acetonitrile; for chromatographic logP: reversed-phase HPLC column (C 18), pH 7.8, HPLC reversed-phase C 18, 55° C.; for log P (neutral): HPLC reversed-phase C 18, 55° C. As for the experimental part: Temperature: 55° C. […] Called log P (neutral) in the table.

The next data set has as its system Phaedon cochleariae. Kind of data set: Phaedon cochleariae - spray test. The class given is in vivo. Conditions: mustard beetle larvae on Chinese cabbage leaf discs, after 7 days; for pest or weed control at 500 g/ha / efficacy: application rate 500 g/ha. As for the experimental part: Phaedon cochleariae—Spray Test
(§1) • Solvent: 78.0 parts by weight of acetone • 1.5 parts by weight of dimethylformamide • Emulsifier: alkylaryl polyglycol ether
(§2) To produce a suitable active compound preparation, 1 part by weight of active compound is dissolved with the stated parts by weight of solvent and made up with water containing an emulsifier concentration of 1000 ppm until the desired concentration is attained. To produce further test concentrations, the preparation is diluted with emulsifier-containing water.
After 7 days, the efficacy in % is determined. 100% means that all the beetle larvae have been killed; 0% means that no beetle larvae have been killed.

In a further data set the test system is Spodoptera frugiperda. In words: Spodoptera frugiperda - spray test. It counts as in vivo. The note with it: armyworm caterpillars on maize leaf discs, after 7 days. As for the experimental part: Spodoptera frugiperda—Spray Test
as §1, §2
Leaf discs of maize (Zea mays) are sprayed with an active compound preparation of the desired concentration and, after drying, populated with caterpillars of the armyworm (Spodoptera frugiperda).
After 7 days, the efficacy in % is determined. 100% means that all the caterpillars have been killed; 0% means that no caterpillars have been killed.

In a further data set the test system is Myzus persicae. Kind of data set: Myzus persicae - spray test. The note with it: all stages of green peach aphid on Chinese cabbage leaf discs, after 5-6 days. It counts as in vivo. As for the experimental part: Myzus persicae—Spray Test
• Solvent: 78 parts by weight of acetone • 1.5 parts by weight of dimethylformamide • Emulsifier: alkylaryl polyglycol ether
as §2
Discs of Chinese cabbage leaves (Brassica pekinensis) infested by all stages of the green peach aphid (Myzus persicae) are sprayed with an active compound preparation of the desired concentration.
After 5-6 days, the efficacy in % is determined. 100% means that all the aphids have been killed; 0% means that no aphids have been killed.

Data set [2] concerns Ctenocephalides felis. In words: Ctenocephalides felis - in vitro contact tests with adult cat fleas. The class given is in vivo. Conditions: application rate 5 μg/cm^2 (500 g/ha); adult cat fleas in coated tubes; after 48 h; dead or moribund. As for the experimental part: Ctenocephalides felis—In Vitro Contact Tests with Adult Cat Fleas
For the coating of the test tubes, 9 mg of active compound are first dissolved in 1 ml of acetone p.a. and then diluted to the desired concentration with acetone p.a. 250 μl of the solution are distributed homogeneously on the inner walls and the base of a 25 ml test tube by turning and rocking on an orbital shaker (rocking rotation at 30 rpm for 2 h). With 900 ppm active compound solution and internal surface 44.7 cm^2, given homogeneous distribution, an area-based dose of 5 μg/cm^2 is achieved.
After the solvent has evaporated off, the tubes are populated with 5-10 adult cat fleas (Ctenocephalides felis), sealed with a perforated plastic lid and incubated in a horizontal position at room temperature and ambient humidity. After 48 h, efficacy is determined. To this end, the test tubes are stood upright and the fleas are knocked to the base of the tube. Fleas which remain motionless at the base or move in an uncoordinated manner are considered to be dead or moribund.
100% efficacy means that all the fleas were dead or moribund. 0% efficacy means that no fleas were harmed.

The test system of data set [3] is Ctenocephalides felis. In words: Ctenocephalides felis - oral test. It counts as in vivo. The note with it: application rate 100 ppm in citrated cattle blood; adult cat fleas; after 2 days. As for the experimental part:
Ctenocephalides felis—Oral Test • Solvent: dimethyl sulphoxide To produce a suitable active compound preparation, 10 mg of active compound are mixed with 0.5 ml of dimethyl sulphoxide. Dilution with citrated cattle blood gives the desired concentration. About 20 unfed adult cat fleas (Ctenocephalides felis) are placed into a chamber which is closed at the top and bottom with gauze. A metal cylinder whose bottom end is closed with parafilm is placed onto the chamber. The cylinder contains the blood/active compound preparation, which can be imbibed by the fleas through the parafilm membrane. After 2 days, the kill in % is determined. 100% means that all of the fleas have been killed; 0% means that none of the fleas have been killed.

For a further data set, the system named is Lucilia cuprina. In words: Lucilia cuprina test. Conditions: application rate 100 ppm; L1 larvae in minced horsemeat; after 2 days. The class given is in vivo. The protocol:
Lucilia cuprina Test • Solvent: dimethyl sulphoxide To produce a suitable active compound preparation, 10 mg of active compound are mixed with 0.5 ml of dimethyl sulphoxide, and the concentrate is diluted with water to the desired concentration. About 20 L1 larvae of the Australian sheep blowfly (Lucilia cuprina) are transferred into a test vessel containing minced horsemeat and the active compound preparation of the desired concentration. After 2 days, the kill in % is determined. 100% means that all the larvae have been killed; 0% means that no larvae have been killed.

The test system of a further data set is Musca domestica. In words: Musca domestica test. The class given is in vivo. The note with it: application rate 100 ppm; adult houseflies, sponge with sugar solution; after 2 days. As for the experimental part: Musca domestica Test • Solvent: dimethyl sulphoxide To produce a suitable active compound preparation, 10 mg of active compound are mixed with 0.5 ml of dimethyl sulphoxide, and the concentrate is diluted with water to the desired concentration. Vessels containing a sponge treated with sugar solution and the active compound preparation of the desired concentration are populated with 10 adult houseflies (Musca domestica). After 2 days, the kill in % is determined. 100% means that all of the flies have been killed; 0% means that none of the flies have been killed.

The nature of data set [4]: log P (acidic), HPLC on reversed-phase column (C 18), LC-MS acidic range. It counts as physicochemical. The note with it: HPLC reversed-phase C 18, 55° C., pH 2.7, 0.1% formic acid/acetonitrile; for chromatographic logP: reversed-phase HPLC column (C 18). An excerpt:
Called log P (HCOOH) in the table.

Setting [5] is: Phaedon cochleariae, foliar, 168 h, read-out: efficacy.

Regarding `CCS(=O)(=O)c1ccc(NC(C)=O)nc1-c1nc2cc(C(F)(F)F)ccc2n1C` [Example I-2, N-{5-(Ethylsulphonyl)-6-[1-methyl-5-(trifluoromethyl)-1H-benzimidazol-2-yl]pyridin-2-yl}acetamide], the chromatographic logP in data set [1] worked out at 2.5. Also, the pest or weed control at 500 g/ha in the data set with Phaedon cochleariae (setting [5]) amounted to 100%. In addition, the efficacy in the data set on Spodoptera frugiperda (application rate 500 g/ha), in the data set with Myzus persicae (application rate 500 g/ha) and in the data set with Ctenocephalides felis [2] was 100% throughout. Also, the “efficacy (kill)” value with Ctenocephalides felis [3] turned out to be 95%; in the data set with Lucilia cuprina, 100%; with Musca domestica, 90%.

`CCS(=O)(=O)c1ccc(N)nc1-c1nc2cc(C(F)(F)F)ccc2n1C` [Example I-3, 5-(Ethylsulphonyl)-6-[1-methyl-5-(trifluoromethyl)-1H-benzimidazol-2-yl]pyridin-2-amine] yielded a chromatographic logP in data set [1] of 2.18. For the same compound, the pest or weed control at 500 g/ha in the data set on Phaedon cochleariae (setting [5]) turned out to be 100%. In addition, the efficacy with Myzus persicae (application rate 500 g/ha) was 100%.

`CCS(=O)(=O)c1ccc(-n2cc(C(F)(F)F)cn2)nc1-c1nc2cc(C(F)(F)F)cnc2n1C` [Example I-4, 2-{3-(Ethylsulphonyl)-6-[4-(trifluoromethyl)-1H-pyrazol-1-yl]pyridin-2-yl}-3-methyl-6-(trifluoromethyl)-3H-imidazo[4,5-b]pyridine] yielded a chromatographic logP in [1] of 4.04. Besides, in the data set with Phaedon cochleariae (Phaedon cochleariae, foliar, 168 h, application rate 100 g/ha, read-out: efficacy), the pest or weed control at 100 g/ha amounted to 83%. The efficacy with Spodoptera frugiperda (application rate 500 g/ha) was 100%. The entries for the “efficacy (kill)” value with Lucilia cuprina and in the data set with Musca domestica were 100% and 80%, respectively.

For the compound `CCS(=O)(=O)c1ccc(NC(C)=O)nc1-c1nc2cc(C(F)(F)F)cnc2n1C` [Example I-5, N-{5-(Ethylsulphonyl)-6-[3-methyl-6-(trifluoromethyl)-3H-imidazo[4,5-b]pyridin-2-yl]pyridin-2-yl}acetamide], the chromatographic logP in data set [1] is 2.3. Further, the pest or weed control at 500 g/ha in the data set with Phaedon cochleariae (setting [5]) came out at 100%. The efficacy in the data set with Spodoptera frugiperda (application rate 100 g/ha) is recorded as 100%; in the data set on Myzus persicae (application rate 500 g/ha) it was 90%.

With `CCS(=O)(=O)c1ccc(-n2ccc(C(F)(F)F)n2)nc1-c1nc2cc(C(F)(F)F)ccc2n1C` [Example I-9], the “log P (neutral)” value in [1] came out at 4.21. The values for the efficacy with Spodoptera frugiperda (application rate 500 g/ha) and with Myzus persicae (application rate 100 g/ha) were 100% and 90%, respectively. Further, the “efficacy (kill)” value in the data set with Lucilia cuprina stood at 100%.

As to `CCS(=O)(=O)c1ccc(NC(=O)C2CC2)nc1-c1nc2cc(C(F)(F)F)ccc2n1C` [Example I-10], in [1], the “log P (neutral)” value stood at 2.92. Further, the efficacy with Phaedon cochleariae, in the data set on Spodoptera frugiperda (application rate 500 g/ha) and with Ctenocephalides felis [2] was 100% in each case. In addition, the “efficacy (kill)” value was 100% in the data set with Ctenocephalides felis [3] and 95% with Lucilia cuprina.

`CCS(=O)(=O)c1ccc(-n2ccc(C(F)(F)F)n2)nc1-c1nc2cc(C(F)(F)F)cnc2n1C` [Example I-13]: the efficacy with Phaedon cochleariae and in the data set on Spodoptera frugiperda (application rate 500 g/ha) was 100% each time. Moreover, the “efficacy (kill)” value in the data set on Lucilia cuprina amounted to 100%; in the data set on Musca domestica it was 80%.

Turning to `CCS(=O)(=O)c1ccc(-n2cc(Cl)cn2)nc1-c1nc2cc(C(F)(F)F)cnc2n1C` [Example I-14], in data set [1], the “log P (neutral)” value is listed as 3.9. In addition, the efficacy in the data set with Phaedon cochleariae and in the data set with Spodoptera frugiperda (application rate 500 g/ha) was 100% throughout. In the data set on Lucilia cuprina, the “efficacy (kill)” value was 100%.

Turning to `CCS(=O)(=O)c1ccc(NC(=O)C2CC2)nc1-c1nc2cc(C(F)(F)F)cnc2n1C` [Example I-16], the “log P (neutral)” value in data set [1] was determined as 2.76. Moreover, the efficacy in the data set on Phaedon cochleariae, in the data set with Spodoptera frugiperda (application rate 500 g/ha) and in the data set with Myzus persicae (application rate 500 g/ha) was 100% throughout.

As to `CCS(=O)(=O)c1ccc(-n2cc(Cl)cn2)nc1-c1cn2cnc(C(F)(F)F)cc2n1` [Example I-17, 2-[6-(4-Chloro-1H-pyrazol-1-yl)-3-(ethylsulphonyl)pyridin-2-yl]-7-(trifluoromethyl)imidazo[1,2-c]pyrimidine], the chromatographic logP in [1] is 3.46. The pest or weed control at 500 g/ha with Phaedon cochleariae (setting [5]) stood at 100%. This compound also yielded an efficacy with Spodoptera frugiperda (application rate 500 g/ha) of 100%.

As to `CCS(=O)(=O)c1ccc(NC(=O)CSC)nc1-c1nc2cc(C(F)(F)F)cnc2n1C` [Example I-20], in data set [1], the “log P (neutral)” value stood at 2.79. In addition, the efficacy is on record as 100% in the data set on Phaedon cochleariae and 90% in the data set with Myzus persicae (application rate 500 g/ha).

On to `CCS(=O)(=O)c1ccc(-n2nccn2)nc1-c1nc2cc(C(F)(F)F)cnc2n1C` [Example I-23], for which the “log P (neutral)” value in data set [1] stood at 2.66. In addition, the efficacy in the data set with Phaedon cochleariae was 100%; in the data set with Spodoptera frugiperda (application rate 500 g/ha), 100%; in the data set with Myzus persicae (application rate 500 g/ha) it was 90%.

With `CCS(=O)(=O)c1ccc(-n2cc(F)cn2)nc1-c1nc2cc(C(F)(F)F)cnc2n1C` [Example I-24], the “log P (neutral)” value in data set [1] came out at 3.55. The results for the efficacy with Phaedon cochleariae, in the data set on Spodoptera frugiperda (application rate 500 g/ha) and in the data set with Myzus persicae (application rate 500 g/ha) were 100%, 100% and 90%, respectively.

Take `CCS(=O)(=O)c1ccc(NC(=O)C(C)CSC)nc1-c1nc2cc(C(F)(F)F)cnc2n1C` (stereo not drawn) [Example I-25]: the efficacy is 100% with Phaedon cochleariae and 90% in the data set with Myzus persicae (application rate 500 g/ha).

On to `CCS(=O)(=O)c1ccc(-n2cc(F)cn2)nc1-c1cn2cnc(C(F)(F)F)cc2n1` [Example I-30], for which, in [4], the “log P (acidic)” value is given as 3.13.

In the case of `CCS(=O)(=O)c1ccc(N)nc1-c1cn2cnc(C(F)(F)F)cc2n1` [Example I-31], in [1], the “log P (neutral)” value stood at 1.59. Besides, the efficacy is on record as 100% in the data set on Phaedon cochleariae, 100% with Spodoptera frugiperda (application rate 500 g/ha) and 90% in the data set with Myzus persicae (application rate 500 g/ha).

Consider `CCS(=O)(=O)c1ccc(NC(C)=O)nc1-c1cn2cnc(C(F)(F)F)cc2n1` [Example I-32], for which the “log P (neutral)” value in data set [1] is reported as 1.99. The values for the efficacy with Phaedon cochleariae, in the data set on Spodoptera frugiperda (application rate 500 g/ha) and with Myzus persicae (application rate 500 g/ha) were 100%, 80% and 90%, respectively.

The compound `CCS(=O)(=O)c1ccc(C(=O)NC)nc1-c1cn2cnc(C(F)(F)F)cc2n1` [Example I-38, 5-(Ethylsulphonyl)-N-methyl-6-[7-(trifluoromethyl)imidazo[1,2-c]pyrimidin-2-yl]pyridine-2-carboxamide] registered a chromatographic logP in data set [4] of 1.95.

Take `Fc1ccc(F)c(-c2cn3cc(C(F)(F)F)ncc3n2)n1` [IX-6, 2-(3,6-Difluoropyridin-2-yl)-6-(trifluoromethyl)imidazo[1,2-a]pyrazine]: the chromatographic logP in [4] was determined as 2.05.

For orientation: chromatographic logP means a lipophilicity value derived from retention on a column. Low values mean lower lipophilicity, high ones higher lipophilicity.
